Experimental data: the NIST ThermoML archive (doi:10.1021/je050402s)

Test: xn = mol fraction of the nth substance listed
Settings: 100.5 kPa, Liquid; for viscosity: Capillary tube (Ostwald / Ubbelohde) method

CCOC(=O)CC(C)C [ethyl 3-methylbutanoate] + CCO
Settings | mass density, 288.15 K [kg/m3] | mass density, 298.15 K [kg/m3] | viscosity, 288.15 K [mPa·s] | viscosity, 298.15 K [mPa·s]
x1 = 0.05 | 802.64 | 793.85 | 1.229 | 1.02
x1 = 0.1 | 810.36 | 801.39 | 1.125 | 0.945
x1 = 0.15 | 817.13 | 807.99 | 1.057 | 0.891
x1 = 0.2 | 823.05 | 813.77 | 1.002 | 0.848
x1 = 0.25 | 828.3 | 818.9 | 0.966 | 0.815
x1 = 0.3 | 833.01 | 823.53 | 0.935 | 0.791
x1 = 0.35 | 837.23 | 827.65 | 0.908 | 0.771
x1 = 0.4 | 841.07 | 831.42 | 0.886 | 0.754
x1 = 0.45 | 844.57 | 834.87 | 0.867 | 0.742
x1 = 0.5 | 847.78 | 838.02 | 0.855 | 0.733
x1 = 0.55 | 850.72 | 840.93 | 0.847 | 0.724
x1 = 0.6 | 853.42 | 843.59 | 0.84 | 0.719
x1 = 0.65 | 855.93 | 846.06 | 0.835 | 0.713
x1 = 0.7 | 858.27 | 848.38 | 0.83 | 0.713
x1 = 0.75 | 860.46 | 850.55 | 0.827 | 0.714
x1 = 0.8 | 862.52 | 852.6 | 0.83 | 0.716
x1 = 0.85 | 864.44 | 854.52 | 0.833 | 0.722
x1 = 0.9 | 866.27 | 856.34 | 0.839 | 0.727
x1 = 0.95 | 868.03 | 858.12 | 0.845 | 0.729
x1 = 1 | 869.66 | 859.78 | 0.853 | 0.739
